Data on two compounds can be found in US7576128B2 (priority 2004, dated 2009).

For test [1], the target named is T1, hAR (human androgen receptor) (Homo sapiens, UniProt P10275).
T1 construct: made in house; host or cells: baculovirus/Sf9 insect cells
T1 sequence (P10275 1-920): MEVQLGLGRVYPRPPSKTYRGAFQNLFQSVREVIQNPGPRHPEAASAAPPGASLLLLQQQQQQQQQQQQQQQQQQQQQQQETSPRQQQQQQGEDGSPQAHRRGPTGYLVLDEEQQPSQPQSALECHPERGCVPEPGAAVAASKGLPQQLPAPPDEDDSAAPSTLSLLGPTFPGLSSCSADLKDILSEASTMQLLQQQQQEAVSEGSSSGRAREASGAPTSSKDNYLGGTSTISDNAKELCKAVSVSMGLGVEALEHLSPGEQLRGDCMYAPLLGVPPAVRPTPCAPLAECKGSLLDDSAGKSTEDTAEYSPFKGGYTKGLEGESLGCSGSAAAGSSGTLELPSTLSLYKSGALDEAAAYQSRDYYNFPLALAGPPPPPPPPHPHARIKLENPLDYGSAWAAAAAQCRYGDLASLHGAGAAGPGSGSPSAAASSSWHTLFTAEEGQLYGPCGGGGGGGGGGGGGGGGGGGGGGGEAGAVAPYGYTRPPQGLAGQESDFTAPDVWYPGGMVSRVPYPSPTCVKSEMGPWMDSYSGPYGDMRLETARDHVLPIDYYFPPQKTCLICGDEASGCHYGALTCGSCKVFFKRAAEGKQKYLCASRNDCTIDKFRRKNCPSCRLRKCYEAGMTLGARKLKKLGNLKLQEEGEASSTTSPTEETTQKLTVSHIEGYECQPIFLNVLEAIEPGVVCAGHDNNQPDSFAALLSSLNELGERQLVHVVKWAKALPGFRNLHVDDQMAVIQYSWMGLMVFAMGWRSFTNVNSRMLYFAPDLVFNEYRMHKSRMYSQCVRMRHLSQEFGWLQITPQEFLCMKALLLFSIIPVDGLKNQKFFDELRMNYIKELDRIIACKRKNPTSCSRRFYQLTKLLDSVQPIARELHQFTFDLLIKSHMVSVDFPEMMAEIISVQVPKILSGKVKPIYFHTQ
Kind of test: Competitive binding analysis on baculovirus/Sf9 generated hAR extracts with 3H-DHT tracer. The method, then: The description below describes how the assay was carried out.
Competitive binding analysis was performed on baculovirus/Sf9 generated hAR extracts in the presence or absence of different concentrations of test agent and a fixed concentration of ^3H-dihydrotestosterone (^3H-DHT) as tracer. This binding assay method is a modification of a protocol previously described (Liao S., et. al. J. Steroid Biochem. 20:11-17 1984). Briefly, progressively decreasing concentrations of compounds are incubated in the presence of hAR extract (Chang et al. P.N.A.S. Vol. 89, pp. 5546-5950,1992), hydroxylapatite, and 1 nM ^3 H-DHT for one hour at 4° C. Subsequently, the binding reactions are washed three times to completely remove excess unbound ^3 H-DHT. hAR bound ^3H-DHT levels are determined in the presence of compounds (=i.e competitive binding) and compared to levels bound when no competitor is present (=i.e. maximum binding). Compound binding affinity to the hAR is expressed as the concentration of compound at which one half of the maximum binding is inhibited.

The target in another test is T2, androgen receptor (Homo sapiens, UniProt P10275).
T2 sequence (P10275 1-920 Q868H): T1 sequence (P10275 1-920) with Q868H
Kind of test: AR antagonist cell assay, MDA-MB453-MMTV clone 54-19 luciferase reporter. The test is classed as cell-based. The following applies: MDA-MB453-MMTV clone 54-19, 100 pM DHT, 17 hr; mean of multiple tests; read-out: AR Cell IC50. As for the experimental part: The compounds ability to antagonize the effects of androgen on the androgen receptor were determined in a whole cell assay as described immediately below.
This cell line is a stable transfected cell line with MDA-MB453 cell background (a human breast tumor cell line expressing androgen receptor). A MMTV minimal promoter containing ARE was first cloned in front of a firefly luciferase reporter gene. Then the cascade was cloned into transfection vector pUV120puro. Electroporation method was used for transfecting MDA-MB-453 cell. Puromycin resistant stable cell line was selected.
• 1. Cells are maintained in culture medium, splitting cells when they reach 80-90% confluence • 2. To test compounds, 10,000 cells/well are plated to opaque 96 cell culture plate in 100 ul/well plating medium, culture for overnight at 37° C. in cell culture incubator • 3. Carefully remove plating medium, then add 80 ul/well of pre-warmed assay medium, add 10 ul/well testing compound (final concentration at) 1000 nM, 200 nM, 40 nM, 8 nM, 1.6 nM, and 0.32 nM), incubate at 37° C. for 30 minutes • 4. Add 10 ul/well freshly prepared DHT (final concentration at 100 pM) to each well, incubate at 37° C. for 17 hr (overnight) • 5.
The results are reported as the mean of multiple tests as described below (the numbers of tests are indicated in the footnote). N.D. denotes that the compound was not tested.

Positions count from the first letter of the chain named. Where two headings read alike, the source gives them in different places.

As for `CCCCC(COc1ccc(C#N)c(C(F)(F)F)c1)C(C)O` (stereo not shown) [Example 15, 4-[2-(1-Hydroxy-ethyl)-hexyloxy]-2-tri-fluoromethyl-benzonitrile], the half-inhibitory concentration (IC50) – broadly, the point on the concentration scale where inhibition reaches its midpoint – was 210 nM in test [1] (hAR extract, 1 nM 3H-DHT, one hour at 4° C., mean of multiple tests, read-out: AR Binding IC50) and 124 nM on androgen receptor.
For `C[C@H](O)CC[C@H](C)Oc1ccc(C#N)c(C(F)(F)F)c1` [Example 23, (1S,4S)-4-(4-Hy-droxy-1-methylpentyl-oxy)-2-tri-fluoromethyl-benzonitrile], the half-maximal inhibitory concentration (IC50) in test [1] stood at 41 nM; on androgen receptor, 132 nM.
